One sequence from patent publication US9540418B2, “Polypeptide specifically binding to rare earth nanoparticles and use thereof” (University of Science and Technology of China, priority 2012, dated 2017) can be followed below.

In one series the test system is mice liver. Nature of the series: Liver damage in mice livers (HE staining). Format: in vivo, Balb/c mice. The following applies: UCP+RE-1 or UCP+AP-1, tail vein, 24 hr. Here is the method: Balb/c mice (purchased from SLAC Laboratory Animal (Shanghai, China), 6 weeks old, and weighed 20 g when used) were bred in a sterile housing, and then 300 μg (dosage: 15 mg/kg) UCN, UCN+PEG (containing 10 mg PEG), UCN+RE-1, UCP, UCP+RE-1, or UCP+AP-1 was injected through tail vein. An equal volume of normal saline was injected as a control. After 24 hr, the livers of the mice were removed and subjected to western blotting assay.
The mice livers obtained as described in Example 21 were in situ fixed with 2.5% glutaral-dimethyl arsine buffer (pH 7.4) at 4° C. for 1 hr, then fixed with 2% osmium tetroxide at room temperature for 1 hr, and then dehydrated with ethanol gradients. Then, the cell samples were embedded in paraffin. The embedded cell samples were cut into ultrathin slices, which were stained with HE (hematoxylin-eosin), and observed and imaged under fluorescence microscope.

For the next series, the system named is HeLa cells. Nature of the series: Adherence of UCN coated with RE-1 or RE-1-RGD to HeLa cells. Format: cell-based. To be noted: 37° C., 2 hr, versus uncoated. How it is done: HeLa cells were cultured on a coverslip (22 mm×22 mm), which was then placed into a 6-well plate with the cells facing upward or downward, and the coverslip was supported by a sterilized glass cube (2 mm×2 mm×2 mm). Then, 4 mL of DMEM medium containing the rare-earth upconversion nanophosphors coated with RE-1 or RE-1-RGD or without any coating was slowly poured into the 6-well plate, such that the cells were fully immersed in the medium, and the coverslip was just located at the middle of the height of the liquid. The cells were placed into a cell incubator at 37° C. for 2 hr, and then washed with PBS 3 times. The UCNs adhered to the surfaces of the cells were observed under a fluorescence microscope (Olympus IX71, Olympus, Japan) equipped with a 980-nm infrared laser (MDL-980 nm 1 W, Changchun New Industries Optoelectronics Tech. Co., Ltd, China).

Series [1] is described as follows: Observation of binding form with UCN by TEM and SEM. To be noted: TEM / SEM after washing off unbound. An excerpt:
The binding forms of RE-1 short peptide and REOB-1 phage with UCN were observed using a transmission electron microscope. The excess unbound polypeptides and phages were washed off from the complex of RE-1 and UCN. The complex was stained with uranium acetate (pH 6.7), and placed on a copper mesh coated with carbon film. A transmission electron microscope TEM (200 kV) (JEM-2100F, JEOL, Japan) was used for observation and imaging (FIG. 5A and FIG. 5B).
The binding form of RE-1 peptide to UCN was observed under a scanning electron microscope. The excess unbound polypeptides were washed off from the complex of RE-1 and UCN. The complex was placed on a copper mesh. A scanning electron microscope SEM (15 kV) (JEOL JSM-6700F, JEOL, Japan) was used for observation and imaging (FIG. 5C).

Series [2] can be described thus: Dissociation of FITC-RE-1 from UCP over time. The format is binding. To be noted: after 48 hr, 37° C., shaking. How it is done: 250 μg FITC-RE-1 was thoroughly mixed with 500 μg UCN. The excess and unbound polypeptides were washed off. Then, the mixture was divided into five aliquots. The aliquots were gently shaked on a shaking table at 37° C. The amount of FITC-RE-1 dissociated in the supernatants was measured by using a fluorescence spectrophotometer at different time points (0 hr, 2 hr, 12 hr, 24 hr, and 48 hr).
The process described above was repeated except that 50 μg FITC-RE-1 and 500 μg UCP were used. The amount of FITC-RE-1 dissociated in the supernatants was measured.

Series [3] can be described thus: Binding ability of FITC-RE-1 to various inorganic nanomaterials (fluorescence spectrophotometer). How it is done:
10 μg of FITC-RE-1 polypeptide was incubated with 100 μL of various inorganic nanomaterials (1 mg/mL) at room temperature for 1 hr, and then centrifuged at 12000 rpm for 10 min. The resulting precipitate was washed 3 times. Then, a fluorescence spectrophotometer (RF-5301 PC, Shimadzu, Japan) was used to detect FITC (emission wavelength: 535 nm). The standard curve of fluorescence intensity vs. concentration for FITC-RE-1 was used as control, and thus the binding ability of the various inorganic nanomaterials to FITC-RE-1 polypeptide was determined. […] However, RE-1 hardly bound to non rare-earth materials, such as diamond, TiO2, SiO2, SiO3, and nano-silver (FIG. 4).

Series [4] is described as follows: Sedimentation / suspension time-dynamics curve of UCP (UV 500 nm). Format: physicochemical. The following applies: standing for 120 min; UCP with or without RE-1 coating. How it is done: 3 mg of UCN was mixed with 1.5 mg of RE-1 or its analogues RE-2, RE-3, or RE-5 as well as PEG, and the binding between them was performed according to a binding method. The excess and unbound RE-1 was washed off. The resultant precipitate was resuspended in 3 mL water, sonicated for 1 min, and then placed into a UV detection cell (X72053, Alpha Laboratories Ltd, UK). Observation was made using a UV spectrophotometer (DU-640, Beckman, USA) at an absorption wavelength of 500 nm for 120 min to obtain a time-dynamics curve.
The process described above was repeated except that 3 mg UCP and 500 μg RE-1 or its analogues RE-2, RE-3, RE-4, RE-5, RE-6, RE-7, RE-8, RE-9, or RE-10 and AP-1 were used. A time-dynamics curve was obtained.

The test system of the next series is HeLa-LC3 cells. Nature of the series: RE-1 blocking of nanophosphor-induced autophagy (LC3 aggregates and vacuoles). The following applies: nanophosphors coated with RE-1, 24 hr. Format: cell-based. How it is done:
The rare-earth upconversion nanophosphors (UCN, UCP, UCN-S) coated with RE-1 were prepared as follows: 50 μg, 10 μg, and 350 μg RE-1 was mixed with 100 μg UCN, UCP, or UCN-S, respectively, incubated at 37° C. for 2 hr, centrifuged at 12000 rpm, and then washed with water for 3 times to remove the excess and unbound RE-1 peptides. The resultant precipitate was resuspended in 100 μL water.
HeLa-LC3 cells were inoculated into a 96-well cell culturing plate at a density of about 1-2×10^4 cells/well, and cultured overnight for further use. At first, the medium was replaced with fresh DMEM medium, to which UCN, UCP, or UCN-S with or without the coating of RE-1 peptides was added at different concentrations (0 μg/mL, 10 μg/mL, 100 μg/mL, 1000 μg/mL). After culturing for 24 hr, the fluorescence generated by GFP reporter gene was observed, imaged, and measured under a fluorescence microscope.
The ability to induce cell autophagy was estimated by determining the numbers of LC3 aggregates and vacuoles.

Regarding “ACTARSPWICG [RE-1, RE-0 with terminal amino acids A and G added]”, the “effect of coating on liver damage induced by UCP” value in the series with mice liver is recorded as “significantly reduced the level of the damages to livers”. In addition, the “number of coated upconversion nanophosphors adhered to the surface of the cells” value with HeLa cells was “greatly reduced”. Also, the “binding form on the surface of UCN” value in series [1] was “form a stable peptide coating on the surface of UCN”. For the same sequence, the “dissociation from UCP” value in series [2] is on record as “less than 1.5%”. Also, the “binding to rare-earth metal oxides and rare-earth upconversion nanophosphors” value in series [3] (10 μg FITC-RE-1, 1 mg/mL material, 1 hr, most strongly Y2O3, CeO2, Yb2O3, Nd2O3, UCN, UCN-S, UCP) is reported as “strongly bound”. In addition, in series [3] (diamond, TiO2, SiO2, SiO3, nano-silver, 10 μg FITC-RE-1, 1 hr), the “binding to non rare-earth materials” value is recorded as “hardly bound”. Also, in series [4], the “suspension / sedimentation of UCP in water” value is “still in suspension”. The “inhibition of cell autophagy induced by UCN, UCP, and UCN-S” value in the series with HeLa-LC3 cells is reported as “significantly inhibited”.
